Source: US5108993A, “Pharmaceutical composition comprising zidovudine and inosiplex or components thereof for the treatment of aids-related syndromes” (priority 1988, dated 1992)
Where two headings read alike, the source gives them in different places.

Columns and labels:
[1] = Clinical Study 1: plasma/serum AZT by radioimmunoassay, AZT alone then AZT + inosiplex; assay type: in vivo, AIDS patients; settings: for Cmax: plasma, mean peak plasma level of AZT; for concentration: read-out: mean nadir level of AZT
Protocol: (§1) The patients were then placed on the following dosing regimen:
(§2) No other drugs that are believed to affect hepatic glucuronidation were administered.

[2] = Clinical Study No. 2: plasma/serum AZT by radioimmunoassay, AZT alone then AZT + p-acetamidobenzoic acid; assay type: in vivo, AIDS patients; settings: for Cmax: human, plasma, po, 100 mg, mean peak plasma level of AZT; for concentration: read-out: mean nadir level of AZT
Protocol: as §1, §2

[3] = Clinical Study 3: plasma/serum AZT by radioimmunoassay, AZT alone then AZT + inosine + INPX; assay type: in vivo, AIDS patients; settings: for Cmax: human, plasma, po, 100 mg, mean peak plasma level of AZT; for concentration: read-out: mean nadir level of AZT
Protocol: as §1, §2

bone marrow = assay: Bone marrow toxicity of AZT in the study patients before the study; assay type: in vivo, AIDS patients; settings: 200 mg AZT orally every four hours (1,200 mg daily), and again on 800 mg daily for 2 months; 5 patients
[4] = Pharmacokinetics studies of AZT 100 mg every 6 hours before the study; assay type: in vivo, AIDS patients; settings: 100 mg AZT every 6 hours (400 mg total daily dose)
[5] = cited from earlier work
[6] = test system: HIV (Human Immunodeficiency Virus); settings: cited from earlier work
HIV = settings: cited from earlier work
[7] = test system: RNA-dependent DNA-polymerase (viral reverse transcriptase); settings: in vitro incorporation into DNA growing chains, DNA chain terminated; cited from earlier work
[8] = with zidovudine, GB 2 181 128 A

## Cc1cn([C@H]2C[C@H](N=[N+]=[N-])[C@@H](CO)O2)c(=O)[nH]c1=O [AZT, 3'-azido-3'-deoxythymidine]
[1]; before the taking of AZT alone or of AZT and INPX
  AZT serum level at time 0: 0.013 µM
[1]; human, po, 100 mg, 100 mg AZT with 1 gm INPX every 6 hrs, day 14, standard deviation 1.5 μM, range 0.14 to 4.4 μM
  Cmax: 2250 nM
[1]; human, po, 100 mg, AZT alone 100 mg oral every 6 hours, day 7, standard deviation 0.75 μM, range 0.06 to 2.52 μM
  Cmax: 1470 nM
[1]; human, serum, po, 100 mg, read-out: Serum half-life of the elimination phase (T1/2)
  half-life: 44 min
[1]; 100 mg AZT with 1 gm INPX every 6 hrs, day 14, standard deviation 0.25 μM, range 0.15 to 0.84 μM
  concentration: 460 nM
[1]; AZT alone 100 mg oral every 6 hours, day 7, standard deviation 0.19 μM, range 0.06 to 0.5 μM
  concentration: 240 nM
[2]; before the taking of AZT alone or of AZT and p-acetamidobenzoic acid
  serum level at time 0: 10 nM
[2]; 100 mg AZT with 1 gm p-acetamidobenzoic acid every 6 hrs, day 14, standard deviation 1.8 μM, range 0.16 to 4.7 μM
  Cmax: 2450 nM
[2]; AZT alone 100 mg oral every 6 hours, day 7, standard deviation 0.75 μM, range 0.04 to 2.46 μM
  Cmax: 1520 nM
[2]; 100 mg AZT with 1 gm p-acetamidobenzoic acid every 6 hrs, day 14, standard deviation 0.28 μM, range 0.14 to 0.88 μM
  concentration: 490 nM
[2]; AZT alone 100 mg oral every 6 hours, day 7, standard deviation 0.19 μM, range 0.04 to 0.6 μM
  concentration: 250 nM
[3]; before the taking of AZT alone or of AZT, inosine and INPX
  AZT serum level at time 0: 0.016 µM
[3]; 100 mg AZT with 1 gm inosine and 1 gm INPX every 6 hrs, day 14, standard deviation 1.3 μM, range 0.15 to 4.2 μM
  Cmax: 2760 nM
[3]; AZT alone 100 mg oral every 6 hours, day 7, standard deviation 0.70 μM, range 0.03 to 2.16 μM
  Cmax: 1410 nM
[3]; 100 mg AZT with 1 gm inosine and 1 gm INPX every 6 hrs, day 14, standard deviation 0.26 μM, range 0.11 to 0.82 μM
  concentration: 510 nM
[3]; AZT alone 100 mg oral every 6 hours, day 7, standard deviation 0.16 μM, range 0.06 to 0.8 μM
  concentration: 210 nM
Bone marrow
  bone marrow toxicity: developped bone marrow toxicity
[4]
  plasma levels: below the therapeutical threshold
[5]; average
  half-life: about 1 hour
[5]; liver
  metabolic inactivation: rapidly inactivated via glucuronidation in the liver
[6]
  inhibition of in vitro replication of some retroviruses, including HIV: inhibitor of the in vitro replication of some retroviruses, including HIV

## OCCN(CCO)c1nc(N2CCCCC2)c2nc(N(CCO)CCO)nc(N3CCCCC3)c2n1 [dipyridamole]
HIV; [8]
  effect on zidovudine: synergistic effect

## COc1ccc(Cc2nccc3cc(OC)c(OC)cc23)cc1OC [papaverine]
HIV; [8]
  effect on zidovudine: synergistic effect

## CCCN(CCC)S(=O)(=O)c1ccc(C(=O)O)cc1 [probenecid]
HIV; [8]
  effect on zidovudine: synergistic effect

## Cc1cn([C@H]2C[C@H](N=[N+]=[N-])[C@@H](CO[P@](=O)(O)O[P@](=O)(O)OP(=O)(O)O)O2)c(=O)[nH]c1=O [zidovudine triphosphate]
[7]
  effect on RNA-dependent DNA-polymerase (viral reverse transcriptase): incorporated into the DNA growing chains by viral reverse transcriptase, whereby DNA chain is terminated

## NC(=O)C1CN(CC(=O)Nc2c(Cl)cccc2Cl)CCN1CCCC(c1ccc(F)cc1)c1ccc(F)cc1 (centres unmarked) [mioflazine]
HIV; [8]
  effect on zidovudine: synergistic effect

## Cc1cccc(C)c1NC(=O)CN1CCN(CCCC(c2ccc(F)cc2)c2ccc(F)cc2)CC1 [lidoflazine]
HIV; [8]
  effect on zidovudine: synergistic effect

## c1ccc([C@H]2CN3CCSC3=N2)cc1 [levamisole]
HIV
  effect on zidovudine: synergistic effect

## COc1cc(C(=O)OCCCN(C)CCN(C)CCCOC(=O)c2cc(OC)c(OC)c(OC)c2)cc(OC)c1OC [hexobendine]
HIV; [8]
  effect on zidovudine: synergistic effect

## gamma-interferon: alpha-, beta, and gamma-interferons
HIV; [8]
  effect on zidovudine: synergistic effect

## O=C(O)P(=O)(O)O [foscarnet]
HIV; [8]
  effect on zidovudine: synergistic effect

## Cc1ccc(C(=O)Nc2ccc(S(=O)(=O)O)c3cc(S(=O)(=O)O)cc(S(=O)(=O)O)c23)cc1NC(=O)c1cccc(NC(=O)Nc2cccc(C(=O)Nc3cc(C(=O)Nc4ccc(S(=O)(=O)O)c5cc(S(=O)(=O)O)cc(S(=O)(=O)O)c45)ccc3C)c2)c1 [suramine]
HIV; [8]
  effect on zidovudine: synergistic effect

## alpha-interferon
HIV; [8]
  effect on zidovudine: synergistic effect

## COc1cc(C(=O)OCCCN2CCCN(CCCOC(=O)c3cc(OC)c(OC)c(OC)c3)CC2)cc(OC)c1OC [dilazep]
HIV; [8]
  effect on zidovudine: synergistic effect

## Nc1nc2c(ncn2COCCO)c(=O)[nH]1 [acyclovir]
HIV; [8]
  effect on zidovudine: synergistic effect
